Literature values in patent US20130177904A1, “ARNT ISOFORM 3 AS A PREDICTOR OF AMINOFLAVONE RESPONSIVENESS IN CANCER CELLS” (UNIVERSITY OF MARYLAND, BALTIMORE, priority 2010, published 2013).

System: nonspecific plasma esterases
Conditions: by nonspecific plasma esterases; cited from earlier work

In the case of `CS(=O)(=O)O.Cc1c(F)c(N)c2c(=O)cc(-c3ccc(NC(=O)[C@@H](N)CCCCN)c(F)c3)oc2c1F` [AFP-464], the “conversion to AF in plasma” value is listed as “rapid conversion to AF”.
